Target: TEK receptor tyrosine kinase (Homo sapiens, UniProt Q02763)
Assay: phospho-TEK ELISA on lysates of Ang1-stimulated HUVECs
Assay type: cell-based

Chain of TEK receptor tyrosine kinase (Q02763 23-1124): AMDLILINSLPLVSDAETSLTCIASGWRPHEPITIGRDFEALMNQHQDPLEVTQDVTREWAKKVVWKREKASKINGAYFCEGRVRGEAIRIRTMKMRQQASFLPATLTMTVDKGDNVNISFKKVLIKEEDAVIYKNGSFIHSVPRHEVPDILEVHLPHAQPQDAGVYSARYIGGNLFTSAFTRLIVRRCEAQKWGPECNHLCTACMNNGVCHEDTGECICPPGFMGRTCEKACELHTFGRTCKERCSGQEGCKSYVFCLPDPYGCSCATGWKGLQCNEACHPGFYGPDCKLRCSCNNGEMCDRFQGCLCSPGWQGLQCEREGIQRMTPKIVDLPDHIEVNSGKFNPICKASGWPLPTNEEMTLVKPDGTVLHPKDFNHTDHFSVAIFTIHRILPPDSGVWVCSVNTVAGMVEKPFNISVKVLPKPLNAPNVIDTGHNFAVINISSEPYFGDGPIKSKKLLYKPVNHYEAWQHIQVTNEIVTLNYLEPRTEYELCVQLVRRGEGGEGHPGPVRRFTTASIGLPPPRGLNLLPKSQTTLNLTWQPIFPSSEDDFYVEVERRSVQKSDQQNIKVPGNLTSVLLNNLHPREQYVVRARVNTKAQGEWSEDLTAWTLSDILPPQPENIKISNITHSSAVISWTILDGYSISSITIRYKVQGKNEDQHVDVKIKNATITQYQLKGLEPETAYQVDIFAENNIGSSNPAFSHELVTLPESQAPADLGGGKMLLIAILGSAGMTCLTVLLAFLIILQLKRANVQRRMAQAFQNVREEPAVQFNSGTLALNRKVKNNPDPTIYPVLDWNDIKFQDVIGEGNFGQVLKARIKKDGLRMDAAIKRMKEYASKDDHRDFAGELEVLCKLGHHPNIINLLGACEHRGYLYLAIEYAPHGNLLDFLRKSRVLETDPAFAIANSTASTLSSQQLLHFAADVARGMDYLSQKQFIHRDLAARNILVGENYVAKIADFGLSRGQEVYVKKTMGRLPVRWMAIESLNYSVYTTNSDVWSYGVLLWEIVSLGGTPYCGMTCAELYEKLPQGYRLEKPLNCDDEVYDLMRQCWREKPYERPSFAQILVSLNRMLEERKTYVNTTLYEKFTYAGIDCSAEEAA

`c1cc(-c2cnn3cc(-c4ccc(OCCN5CCCCC5)cc4)cnc23)ccn1` [DM, Dorsomorphin] was tested, and the IC50 was 4.72 µM.

From PMC10480310 (iScience, 2023)
